According to patent US20240360133A1, “FUSED TRICYCLIC COMPOUND, PREPARATION METHOD THEREFOR AND APPLICATION THEREOF IN MEDICINE” (Jiangsu Hengrui Pharmaceuticals Co., Ltd., priority 2020, published 2024):

target: T1, human TLR8 (Homo sapiens, UniProt Q9NR97); test: Inhibitory effect on human TLR8 pathway (HEK-Blue hTLR8 SEAP reporter); assay type: cell-based; conditions: HEK-Blue hTLR8 cells, 6 μM resiquimod, 20 h, SEAP OD620
T1 construct: host or cells: HEK-Blue hTLR8 (HEK293)
T1 sequence (Q9NR97 27-1041): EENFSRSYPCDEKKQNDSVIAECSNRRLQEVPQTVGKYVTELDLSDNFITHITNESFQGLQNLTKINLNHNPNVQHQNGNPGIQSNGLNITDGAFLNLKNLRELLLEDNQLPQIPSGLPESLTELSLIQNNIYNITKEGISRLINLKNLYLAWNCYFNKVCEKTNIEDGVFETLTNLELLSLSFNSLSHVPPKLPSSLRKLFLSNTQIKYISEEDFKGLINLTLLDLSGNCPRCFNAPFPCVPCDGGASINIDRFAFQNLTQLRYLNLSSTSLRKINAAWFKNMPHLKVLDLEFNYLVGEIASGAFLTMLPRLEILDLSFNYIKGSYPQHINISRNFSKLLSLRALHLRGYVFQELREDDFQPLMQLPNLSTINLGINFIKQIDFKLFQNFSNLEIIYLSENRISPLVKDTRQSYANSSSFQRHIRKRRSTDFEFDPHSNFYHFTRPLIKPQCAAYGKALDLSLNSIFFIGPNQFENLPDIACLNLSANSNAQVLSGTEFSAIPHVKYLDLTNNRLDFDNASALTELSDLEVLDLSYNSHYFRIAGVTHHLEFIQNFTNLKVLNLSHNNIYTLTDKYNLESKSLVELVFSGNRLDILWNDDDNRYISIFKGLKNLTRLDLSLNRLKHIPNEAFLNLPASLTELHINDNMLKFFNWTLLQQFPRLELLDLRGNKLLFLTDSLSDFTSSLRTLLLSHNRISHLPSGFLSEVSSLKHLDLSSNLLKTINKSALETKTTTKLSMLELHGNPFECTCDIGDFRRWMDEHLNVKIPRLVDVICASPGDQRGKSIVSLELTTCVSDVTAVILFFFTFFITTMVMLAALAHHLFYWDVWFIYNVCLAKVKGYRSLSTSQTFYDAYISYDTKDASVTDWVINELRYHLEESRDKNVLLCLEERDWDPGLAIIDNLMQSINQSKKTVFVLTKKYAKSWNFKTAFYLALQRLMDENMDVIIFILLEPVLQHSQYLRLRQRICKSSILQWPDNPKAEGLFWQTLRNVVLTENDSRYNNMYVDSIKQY
Experimental: • 1. HEK-Blue™ hTLR8 cell (Invivogen) • 2. Resiquimod (R848, Invivogen) • 3. Alkaline phosphatase detection medium (Quanti-Blue Detection, Invivogen) • 4. Blasticidin (Invivogen) • 5. Zeocin (Invivogen) • 6. Normocin (Invivogen) • 7. DMEM/HIGH Glucose (GE Healthcare) • 8. Fetal bovine serum (FBS, Gibco) • 9. Phosphate-buffered saline (Shanghai BasalMedia Technologies Co., Ltd.) • 10. Sterile purified water (made in-house by Shanghai Hengrui) • 11. 15 mL centrifuge tube (Corning) • 12. 96-well formulating plate (Corning) • 13. 96-well flat-bottom cell culture plate (Corning) • 14. Constant-temperature cell incubator (Thermo scientific) • 15. Constant-temperature incubator (Shanghai Yiheng Scientific Instruments Co., Ltd.) • 16. PHERAstar FS microplate reader (BMG Labtech)
HEK-Blue™ hTLR8 cells were purchased from Invivogen. These cells are HEK293 cells transfected with the human Toll-like receptor 8 (TLR8) gene and the secreted alkaline phosphatase reporter gene (SEAP). The alkaline phosphatase reporter gene (SEAP) is under the regulation of the IFN—P minimal promoter comprising 5 NF-kB and AP-1 binding sites. Upon activation of TLR8 with an agonist, SEAP secretion is induced via downstream NF-kB and AP-1. After addition of an antagonist compound, the pathway described above is inhibited, and SEAP secretion is reduced. The activity of the compounds for the TLR8 pathway was evaluated by measuring OD620 through the SEAP substrate.
20 mM test compounds dissolved in 100% DMSO were serially diluted with 100% DMSO to 2000, 400, 80, 16, 3.2, 0.64, 0.128, 0.0256 μM, with blank wells containing 100% DMSO. The compounds and 100% DMSO were then 20-fold diluted in DMEM/HIGH glucose media containing 10% inactivated FBS (complete media, the same applies below). Resiquimod was diluted to 60 μM with sterile water. The 60 μM resiquimod dilution in sterile water was added to a 96-well cell culture plate at 20 μL/well. The above compounds diluted in complete media and 100% DMSO were then added at 20 μL/well to wells containing resiquimod, 20 μL of sterile water and 20 μL of 100% DMSO diluted in the complete medium were added to negative control wells.
HEK-Blue™ hTLR8 cells were cultured in a DMEM/HIGH glucose medium containing 10% inactivated FBS, 100 μg/mL Normocin, 10 μg/mL blasticidin, and 100 μg/mL Zeocin. Cells that were in a good state of growth and had grown to 70%-8% were collected. The growth medium was discarded, 5-10 mL of PBS pre-heated at 37° C. was added to wash the cells once, and 2-5 mL of pre-heated PBS was added. The cells were cultured at 37° C. for 1-2 min, dispersed by pipetting, transferred to a 15 mL centrifuge tube, and counted, and the cell density was adjusted to 4.8×10^5/mL with the complete medium. After density adjustment, 160 μL of the resulting cell suspension was added to the above 96-well cell culture plate to a final number of cells per well of 76,500/well. The final concentration of resiquimod was 6 μM, and the final concentrations of the test compounds were 10,000, 2000, 400, 80, 16, 3.2, 0.64, and 0.128 nM. The cells were cultured in a 37° C., 5% CO2 incubator for 20 h. Then 20 μL of the supernatant was added to 180 μL of the prepared alkaline phosphatase detection medium and incubated in the dark in a constant-temperature incubator at 37° C. for 120 min. The OD620 absorbance readings were taken on a microplate reader. The inhibition rate was calculated using the following formula: […]
Inhibition curves were plotted using Graphpad Prism software according to the concentrations of the compounds and the corresponding inhibition rates, and the concentrations of the compounds at which the inhibition rate reached 50%, i.e., IC50 values, were calculated and are shown in Table 2.

Compound | IC50 [nM]
Cc1cc(-c2[nH]c3cc4c(nc3c2C(C)C)CN(Cc2ccc(N3CCNCC3)cn2)CC4)cc(C)n1 [Example 5, 2-(2,6-Dimethylpyridin-4-yl)-3-isopropyl-6-((5-(piperazin-1-yl)pyridin-2-yl)methyl)-5,6,7,8-tetrahydro-1H-pyrrolo[3,2-b][1,7]naphthyridine] | 2.5
Cc1c(-c2[nH]c3cc4c(nc3c2C(C)C)CN(CC(N)=O)CC4)cn2ncnc2c1C [Example 10, 2-(2-(7,8-Dimethyl-[1,2,4]triazolo[1,5-a]pyridin-6-yl)-3-isopropyl-1,5,7,8-tetrahydro-6H-pyrrolo[3,2-b][1,7]naphthyridin-6-yl)acetamide] | 8.2
Cc1c(-c2[nH]c3cc4c(nc3c2C(C)C)CNCC4)cn2ncnc2c1C [Example 9, 2-(7,8-Dimethyl-[1,2,4]triazolo[1,5-a]pyridin-6-yl)-3-isopropyl-5,6,7,8-tetrahydro-1H-pyrrolo[3,2-b][1,7]naphthyridine] | 0.6
Cc1cc(-c2[nH]c3cc4c(nc3c2C(C)C)CN(CCc2ccc(N3CCNCC3)nc2)CC4)cc(C)n1 [Example 4, 2-(2,6-Dimethylpyridin-4-yl)-3-isopropyl-6-(2-(6-(piperazin-4-yl)pyridin-3-yl)ethyl)-5,6,7,8-tetrahydro-1H-pyrrolo[3,2-b][1,7]naphthyridine] | 1.8

The next lines start with the values.

IC50 [nM] | Compound
18.8 | Cc1cc(-c2[nH]c3cc4c(nc3c2C(C)C)CN(CC(N)=O)CC4)cc(C)n1 [Example 8, 2-(2-(2,6-Dimethylpyridin-4-yl)-3-isopropyl-1,5,7,8-tetrahydro-6H-pyrrolo[3,2-b][1,7]naphthyridin-6-yl)acetamide]
30.4 | Cc1cc(-c2[nH]c3cc4c(nc3c2C(C)C)CN(C(C)C)CC4)cc(C)n1 [Example 2, 2-(2,6-Dimethylpyridin-4-yl)-3,6-diisopropyl-5,6,7,8-tetrahydro-1H-pyrrolo[3,2-b][1,7]naphthyridine]
0.8 | Cc1cc(-c2[nH]c3cc4c(nc3c2C(C)C)CNCC4)cc(C)n1 [Example 1, 2-(2,6-Dimethylpyridin-4-yl)-3-isopropyl-5,6,7,8-tetrahydro-1H-pyrrolo[3,2-b][1,7]naphthyridine]
2.2 | Cc1cc(-c2[nH]c3cc4c(nc3c2C(C)C)CN(CC23CCC(N)(CC2)CC3)CC4)cc(C)n1 [Example 7, 4-((2-(2,6-Dimethylpyridin-4-yl)-3-isopropyl-1,5,7,8-tetrahydro-6H-pyrrolo[3,2-b][1,7]naphthyridin-6-yl)methyl)bicyclo[2.2.2]octyl-1-amine]
